The values that follow come from patent US20080249077A1, “17.Beta.-Fluoromethoxycarbonyl-Androst-4-En-3-One Compounds With a 17.Alpha.-Carbonate Sustituent” (priority 2005, published 2008).

The target of assay [1] is T1, glucocorticoid receptor (Homo sapiens, UniProt P04150).
T1 construct: A549 cells stably transfected with a reporter gene; endogenous in cells; host or cells: A549 cells
T1 sequence (P04150 1-777): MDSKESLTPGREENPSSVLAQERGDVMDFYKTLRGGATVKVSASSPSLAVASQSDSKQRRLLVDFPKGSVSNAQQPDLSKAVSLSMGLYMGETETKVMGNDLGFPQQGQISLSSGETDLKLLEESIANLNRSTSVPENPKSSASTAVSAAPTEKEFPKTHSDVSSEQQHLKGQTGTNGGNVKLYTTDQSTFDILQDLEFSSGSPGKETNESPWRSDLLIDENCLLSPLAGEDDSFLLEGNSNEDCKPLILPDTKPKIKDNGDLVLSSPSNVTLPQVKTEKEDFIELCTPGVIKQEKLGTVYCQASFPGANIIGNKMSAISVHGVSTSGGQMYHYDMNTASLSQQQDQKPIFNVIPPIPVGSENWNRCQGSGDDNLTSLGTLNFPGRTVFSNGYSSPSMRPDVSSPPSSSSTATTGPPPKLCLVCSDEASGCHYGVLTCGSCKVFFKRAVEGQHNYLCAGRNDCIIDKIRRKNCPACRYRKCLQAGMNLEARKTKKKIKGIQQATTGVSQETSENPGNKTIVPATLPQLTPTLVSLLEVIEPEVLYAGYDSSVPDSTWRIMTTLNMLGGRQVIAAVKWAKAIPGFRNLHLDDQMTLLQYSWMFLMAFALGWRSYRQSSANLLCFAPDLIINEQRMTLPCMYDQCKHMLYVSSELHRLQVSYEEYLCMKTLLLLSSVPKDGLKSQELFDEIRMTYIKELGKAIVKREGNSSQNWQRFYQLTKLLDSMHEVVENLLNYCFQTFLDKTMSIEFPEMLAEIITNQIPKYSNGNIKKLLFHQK
Put plainly: Assay for transrepression activity of the glucocorticoid agonists (NF-κB responsive ELAM promoter-sPAP reporter, TNF-stimulated A549 cells). The class given is cell-based. Conditions: compound 1 hour at 37° C., then TNF 10 ng/ml for 16 hours, read-out: pIC50 (transrepression) (converted). As for the experimental part:
Assay for Transrepression Activity of the Glucocorticoid Agonists
A549 cells stably transfected with a reporter gene containing the NF-κB responsive elements from the ELAM gene promoter coupled to sPAP (secreted alkaline phosphatase) are treated with test compounds at appropriate doses for 1 hour at 37° C. The cells are then stimulated with tumour necrosis factor (TNF, 10 ng/ml) for 16 hours, at which time the amount of alkaline phosphatase produced is measured by a standard colourimetric assay. Dose response curves were constructed from which EC50 values were estimated.

The target of assay [2] is T1, glucocorticoid receptor. The assay can be described thus: Assay for transactivation activity of the glucocorticoid agonists (MMTV-LTR renilla luciferase reporter in A549 cells). The class given is cell-based. Conditions: compound 6 hour at 37° C., read-out: maximal response relative to Dexamethasone (100%) (transactivation). As for the experimental part:
Assay for Transactivation Activity of the Glucocorticoid Agonists
The functional assay based on that described by R. J. H. Austin et al., Eur Resp J. (2002), 20, 1386-1392 measures the ability of compounds to directly transactivate gene expression. A549 cells stably transfected with a reporter gene containing the glucocorticoid responsive region of the mouse mammary tumour virus long terminal repeat (MMTV-LTR) coupled to renilla luciferase were treated with test compounds at appropriate doses for 6 hour at 37° C. The amount of luciferase activity present within the cells is then determined by measuring the light emitted following incubation with a suitable substrate. Dose response curves were constructed from which EC50 values were estimated and from which maximal responses are calculated relative to Dexamethasone (100%).
(In general: In a reporter assay the amount or activity of a reporter protein is the signal.)

On to `C[C@@H]1C[C@H]2[C@@H]3C[C@H](F)C4=CC(=O)C=C[C@]4(C)[C@@]3(F)[C@@H](O)C[C@]2(C)[C@@]1(OC(=O)OC1CCCC(C)(C)C1)C(=O)OCF` (single isomer, unassigned) [Example 19A, Fluoromethyl(6α,11β,16α,17α)-17-({[(3,3-dimethylcyclohexyl)oxy]carbonyl}oxy)-6,9-difluoro-11-hydroxy-16-methyl-3-oxoandrosta-1,4-diene-17-carboxylate], for which the IC50 at glucocorticoid receptor [1] is under 0.1 nM.
On the same count and under the same terms, under `CC(OC(=O)O[C@]1(C(=O)OCF)[C@H](C)C[C@H]2[C@@H]3C[C@H](F)C4=CC(=O)C=C[C@]4(C)[C@@]3(F)[C@@H](O)C[C@@]21C)C(C)(C)C` (single isomer, unassigned) [Example 23A, Fluoromethyl(6α,11β,16α,17α)-6,9-difluoro-11-hydroxy-16-methyl-3-oxo-17-({[(1,2,2-trimethylpropyl)oxy]carbonyl}oxy)androsta-14-diene-17-carboxylate] stands under 0.1 nM.
For the compound `C[C@@H]1C[C@H]2[C@@H]3C[C@H](F)C4=CC(=O)C=C[C@]4(C)[C@@]3(F)[C@@H](O)C[C@]2(C)[C@@]1(OC(=O)OC(C)(C)C)C(=O)OCF` [Example 1, Fluoromethyl(6α,11β,16α,17α)-17-({[(1,1-dimethylethyl)oxy]carbony}oxy)-6,9-difluoro-11-hydroxy-16-methyl-3-oxoandrosta-1,4-diene-17-carboxylate], at glucocorticoid receptor [2], the Emax was under 25%. Besides, the IC50 on glucocorticoid receptor [1] is under 0.1 nM.
Turning to `CCC(CC)COC(=O)O[C@]1(C(=O)OCF)[C@H](C)C[C@H]2[C@@H]3C[C@H](F)C4=CC(=O)C=C[C@]4(C)[C@@]3(F)[C@@H](O)C[C@@]21C` [Example 6, Fluoromethyl(6α,11β,16α,17α)-17-({[(2-ethylbutyl)oxy]carbonyl}oxy)-6,9-difluoro-11-hydroxy-16-methyl-3-oxoandrosta-1,4-diene-17-carboxylate], the Emax on glucocorticoid receptor [2] was under 25%. Also, the IC50 at glucocorticoid receptor [1] is under 0.1 nM.
In the same order, the values of `CC(C)C(C)OC(=O)O[C@]1(C(=O)OCF)[C@H](C)C[C@H]2[C@@H]3C[C@H](F)C4=CC(=O)C=C[C@]4(C)[C@@]3(F)[C@@H](O)C[C@@]21C` (stereo partly drawn) [Example 9, Fluoromethyl(6α,11β,16α,17α)-17-({[(1,2-dimethylpropyl)oxy]carbonyl}oxy)-6,9-difluoro-11-hydroxy-16-methyl-3-oxoandrosta-1,4-diene-17-carboxylate] are under 25% and under 0.1 nM.
In the same order, the values of `C[C@@H]1C[C@H]2[C@@H]3C[C@H](F)C4=CC(=O)C=C[C@]4(C)[C@@]3(F)[C@@H](O)C[C@]2(C)[C@@]1(OC(=O)OCC1CCCC1)C(=O)OCF` [Example 15, Fluoromethyl(6α,11β,16α,17α)-17-({[(cyclopentylmethyl)oxy]carbonyl}oxy)-6,9-difluoro-11-hydroxy-16-methyl-3-oxoandrosta-1,4-diene-17-carboxylate] are under 25% and under 0.1 nM.
Regarding `CC(OC(=O)O[C@]1(C(=O)OCF)[C@H](C)C[C@H]2[C@@H]3C[C@H](F)C4=CC(=O)C=C[C@]4(C)[C@@]3(F)[C@@H](O)C[C@@]21C)C1CCCC1` (stereo partly drawn) [Example 21A, Fluoromethyl(6α,11β,16α,17α)-17-({[(1-cyclopentylethyl)oxy]carbonyl}oxy)-6,9-difluoro-11-hydroxy-16-methyl-3-oxoandrosta-1,4-diene-17-carboxylate], at glucocorticoid receptor [1], the IC50 was under 0.1 nM.
As for `C[C@@H]1C[C@H]2[C@@H]3C[C@H](F)C4=CC(=O)C=C[C@]4(C)[C@@]3(F)[C@@H](O)C[C@]2(C)[C@@]1(OC(=O)O[C@@H]1C[C@@H]2CC[C@@]1(C)C2(C)C)C(=O)OCF` [Example 27, Fluoromethyl(6α,11β,16α,17α)-6,9-difluoro-11-hydroxy-16-methyl-3-oxo-17-[({[(1S,2R,4S)-1.7.7-trimethylbicyclo[2.2.1]hept-2-yl]oxy}carbonyl)oxy]androsta-1,4-diene-17-carboxylate], on glucocorticoid receptor [2], the Emax is under 25%.
The same measure, in the same setting: for `C[C@@H]1C[C@H]2[C@@H]3C[C@H](F)C4=CC(=O)C=C[C@]4(C)[C@@]3(F)[C@@H](O)C[C@]2(C)[C@@]1(OC(=O)O[C@H]1C[C@H]2CC[C@]1(C)C2(C)C)C(=O)OCF` [Example 28, Fluoromethyl(6α,11β,16α,17α)-6,9-difluoro-11-hydroxy-16-methyl-3-oxo-17-[({[(1R,2S,4R)-1,7,7-trimethylbicyclo[2.2.1]hept-2-yl]oxy}carbonyl)oxy]androsta-1,4-diene-17-carboxylate] the value was under 25%; for `CC1CC2C3CC(F)C4=CC(=O)C=CC4(C)C3(F)C(O)CC2(C)C1(OC(=O)OC1CC2CCC1(C)C2(C)C)C(=O)OCF` [Example 29, Fluoromethyl(6α,11β,16α,17α)-6,9-difluoro-11-hydroxy-16-methyl-3-oxo-17-[({[(1R,2R,4R)-1,7,7-trimethylbicyclo[2.2.1]hept-2-yl]oxy}carbonyl)oxy]androsta-1,4-diene-17-carboxylate], under 25%; for `C[C@@H]1C[C@H]2[C@@H]3C[C@H](F)C4=CC(=O)C=C[C@]4(C)[C@@]3(F)[C@@H](O)C[C@]2(C)[C@@]1(OC(=O)OC1CCCC1)C(=O)OCF` [Example 31, Fluoromethyl(6α,11β,16α,17α)-17-{[(cyclopentyloxy)carbonyl]oxy}-6,9-difluoro-11-hydroxy-16-methyl-3-oxoandrosta-1,4-diene-17-carboxylate], under 25%.
On the same count and under the same terms, under `C[C@@H]1C[C@H]2[C@@H]3C[C@H](F)C4=CC(=O)C=C[C@]4(C)[C@@]3(F)[C@@H](O)C[C@]2(C)[C@@]1(OC(=O)O[C@H]1C(C)(C)[C@H]2CC[C@]1(C)C2)C(=O)OCF` [Example 33, Fluoromethyl(6α,11β,16α,17α)-6,9-difluoro-11-hydroxy-16-methyl-3-oxo-17-[({[(1R,2R,4S)-1,3,3-trimethylbicyclo[2.2.1]hept-2-yl]oxy}carbonyl)oxy]androsta-1,4-diene-17-carboxylate] stands under 25%.
